Test results published in patent US20250387375A1, “SOFALCONE DERIVATIVES AND MEDICAL USE THEREOF” (KAOHSIUNG MEDICAL UNIVERSITY, priority 2024, published 2025).

Tests used:
[1] = test system: human platelet suspension (platelet aggregation caused by TxA2 agonist U46619); assay: Platelet aggregation reaction test, U46619-induced; assay type: cell-based
Procedure: (§1) Blood samples were collected from healthy donors, and acid-citrate-dextrose (ACD) solution was used as an anticoagulant. The blood samples were centrifuged to obtain platelets, and residual plasma was removed by washing to prepare platelet suspension.
(§2) In the experimental method, a platelet aggregometer (Chrono-Log Co., Havertown, PA, USA) was used for tests. The compound to be tested was added to the platelet suspension and reacted for 3 minutes at 37° C. with stirring (1200 rpm). Then, platelet stimulator U46619 or collagen was added to initiate platelet aggregation, and the test time was 5 minutes. The principle of the platelet aggregation test was: when platelets were stimulated to induce aggregation reaction, the light transmission of the platelet suspension would increase; by calculating changes in light transmission of the platelet suspension before and after being stimulated, the percentage of platelet aggregation could be obtained.

[2] = test system: human platelet suspension (platelet aggregation caused by collagen); assay: Platelet aggregation reaction test, collagen-induced; assay type: cell-based; settings: read-out: Collagen IC 50
Procedure: as §1, §2

Structure (SMILES)	IC50 [1] [µM]	IC50 [2] [µM]
CC(C)=CCOc1ccc(C(=O)/C=C/c2ccc([N+](=O)[O-])cc2)c(OCC(=O)O)c1 [Compound 25]	43.8	49.2
O=C(O)CCCCCOc1ccccc1C(=O)CCc1cccc(F)c1 [Compound 50]	0.57	0.33
O=C(O)CCCCCOc1ccccc1C(=O)C=Cc1cccs1 [Compound 51]	0.57	0.62
CCOC(=O)COc1ccccc1C(=O)C=Cc1ccc(O)cc1 [Compound 42]	38.7	1.59
CC(C)=CCOc1ccc(C(=O)/C=C/c2ccccc2F)c(OCCCC(=O)O)c1 [Compound 13]	0.51	0.65
O=C(O)CCCCCOc1ccccc1C(=O)C=Cc1ccco1 [Compound 52]	0.5	0.56
CC(C)=CCOc1ccc(C=CC(=O)c2ccc(OCC=C(C)C)cc2OCCCCC(=O)O)cc1 [Compound 37]	0.23	1.58
CCOC(=O)COc1cc(O)ccc1C(=O)C=Cc1ccc(Cl)cc1 [Compound 44]	> 100	8.92
CC(C)=CCOc1ccc(C(=O)/C=C/c2ccc(Cl)cc2)c(OCC(=O)O)c1 [Compound 24]	43.4	67.6
CCOC(=O)COc1ccc(C=CC(=O)c2ccc(OCC(=O)OCC)cc2OCC(=O)OC)cc1 [Compound 83]	8.62	8.31
CC(C)=CCOc1ccc(C(=O)/C=C/c2ccc(OCC=C(C)C)c(OCC=C(C)C)c2)c(OCC(=O)O)c1 [Compound 21]	14.4	29.7
CC(C)=CCCC(C)=CCOc1ccc(C(=O)C=Cc2ccc(OCC=C(C)C)cc2)c(OCCCC(=O)O)c1 [Compound 5]	4.45	6.28
O=C(O)COc1cc(O)ccc1C(=O)C=Cc1ccc(O)cc1 [Compound 71]	65.4	> 100
COC(=O)COc1cc(OCC(=O)c2ccccc2)ccc1C(=O)C=Cc1ccc(OCC(=O)c2ccccc2)cc1 [Compound 82]	> 100	≥ 100
O=C(O)CCCCCOc1cc(F)ccc1C(=O)/C=C/c1ccc(F)cc1 [Compound 12]	0.5	0.43
CC(C)=CCOc1ccc(C(=O)C=Cc2cccs2)c(OCCCCCC(=O)O)c1 [Compound 55]	5.37	4.4
CC(C)=CCOc1cccc(/C=C/C(=O)c2ccc(OCC=C(C)C)cc2OCC(=O)O)c1 [Compound 20]	20.6	28.3
O=C(O)CCCCCOc1cc(F)ccc1C(=O)/C=C/c1ccc(F)cc1 [Compound 16]	0.37	0.62
CCOC(=O)CCCOc1ccccc1C(=O)C=Cc1ccc(OCC=C(C)CCC=C(C)C)cc1 [Compound 8]	2.78	4.24

Second part, the molecule after the results:

IC50 [1] [µM]	IC50 [2] [µM]	Structure (SMILES)
3.59	33.9	O=C(O)COc1cc(OCc2ccc(F)cc2)ccc1C(=O)C=Cc1ccc(OCc2ccc(F)cc2)cc1 [Compound 89]
15.3	3.67	CCOC(=O)COc1ccccc1C(=O)C=Cc1ccccc1 [Compound 108]
> 100	> 100	CCCCCCCCOc1ccc(C=CC(=O)c2ccc(OCCCCCCCC)cc2OCC(=O)O)cc1 [Compound 96]
0.46	0.38	CC(C)=CCOc1ccc(C=CC(=O)c2ccccc2OCCCCCC(=O)O)cc1 [Compound 103]
13.5	5.31	CCOC(=O)CCCCCCOc1ccccc1C(=O)C=Cc1ccccc1 [Compound 104]
> 100	> 100	COC(=O)COc1cc(OCc2ccc(F)cc2)ccc1C(=O)C=Cc1ccc(OCc2ccc(F)cc2)cc1 [Compound 86]
13.4	2.69	COC(=O)CCCOc1ccccc1C(=O)C=Cc1ccccc1 [Compound 112]
40.7	63.2	CCCCOc1ccc(C=CC(=O)c2ccc(OCCCC)cc2OCC(=O)O)cc1 [Compound 94]
> 100	> 100	CCCCOc1ccc(C=CC(=O)c2ccc(OCCCC)cc2OCC(=O)OC)cc1 [Compound 90]
